Laboratory results published in patent publication US20030086972A1, “Hydrogel-driven drug dosage form” (priority 2000, published 2003).
≈ marks a conversion by molar mass, not a printed value. Counter-ions that a name gives are not always drawn. Like-named read-outs stand apart in the source and are kept apart here.

What was measured:
[1] = cited from earlier work
[2] = Aqueous solubility of the drug

CN[C@H]1CC[C@@H](c2ccc(Cl)c(Cl)c2)c2ccccc21 [sertraline]
solubility (in words) ([1]; low pH): moderate solubility | solubility (in words) ([1]; pH of about 7.5): extremely low solubility | solubility (in words) ([1]; pH values above 5): low solubility

4-[3-[4-(2-methylimidazol-1 -yl) phenylthio]phenyl]-3,4,5,6-tetrahydro-2H-pyran-4-carboxamide hemifumarate [Drug 3]
solubility ([2]; pH 4): 3.7 mgA/mL

CN[C@H]1CC[C@@H](c2ccc(Cl)c(Cl)c2)c2ccccc21 [Drug 2, sertraline HCl]
solubility ([2]; aqueous, pH 7, aqueous buffer): 200 µg/mL

COc1cc2nc(N3CCCN(C(=O)N4CCOCC4)CC3)cc(N)c2c(-c2ccc(F)cc2)c1OC [Drug 5, 4-amino-5-(4-fluorophenyl)-6,7-dimethoxy-2-[4-(morpholinocarbonyl)perhydro-1,4-diazepin-1-yl]quinoline]
solubility ([2]; aqueous, pH 7.6, aqueous buffer): 400 µg/mL (≈ 785 µM)
